In US20160214958A1, “COMPOUNDS AND USE FOR TREATING CANCER” (GLIONOVA AB, priority 2013, published 2016):
Read-outs that look alike come from different tables or passages of the source.

Experiments:
[1] = Pharmacokinetic evaluation of Vacquinol-1 stereoisomers, plasma and brain; assay type: in vivo, NMRI (SR/RS) or BALB/c (Vrac) mice; details: for Cmax Brain / tlast Brain / tlast Plasma / AUC(0-t) / half-life / Tmax / Cmax: mice
Experimental: The pharmacokinetics of Vacquinol-1 (racemic), Vacquinol-1RS and Vacquinol-1SR, were determined in NMRI (SR/RS) or BALB/c (Vrac) mice following single intravenous (i.v.) or per oral (p.o) administration of 2 or 20 mg/kg Vacquinol-1, respectively. Blood and brain samples were taken from animals at the following nominal time points: 15, 30, and 60 minutes, and 2, 4, 6, 8, 24, 48, 72 and 144 hours after dosing (n=3/time-point). Bioanalytical quantification of Vacquinol-1 was analysed in plasma and brain samples by a UPLC-MS/MS.
Pharmacokinetics were calculated by non-compartmental analysis (NCA) from composite (mean) profiles. Nominal sampling times and dose levels have been used for the NCA calculations.

[2] = tested on: U3013M GSCs intracranial tumor; assay: Mouse xenograft experiment, intracranial infusion by osmotic minipump; assay type: in vivo, Nod/SCID mice; details: 15 μM, 0.5 μL/hr, one week, started 6 weeks after grafting, vs vehicle
Experimental: The ability of S10 to attenuate tumor progression was next examined in a mouse model for human GBM. Nod/SCID mice received intracranial injections of 100 000 U3013M GSCs and the resulting tumor was allowed to develop for 7 weeks. […] Tumors were highly immunoreactive for human Nestin (hNestin) and human GFAP (hGFAP). S10 (15 μM, 0.5 μL/hr) or vehicle (DMSO) was administered into the site of original cell deposit by an osmotic minipump 6 weeks after cells were grafted. Animals were collected for histological analysis following one week of treatment. […] A massive LAMP1 staining was observed within the tumor cell mass following one week S10 administration, with most or all cells displaying immunoreactivity while mice receiving vehicle were devoid of LAMP1.
GSCs were dissociated with trypsin, resuspended in PBS and kept on ice and the viability of cells were checked using trypan blue before and after the experiment. Surgery in mice was performed using sterile techniques, 6 to 8 week old NOD-SCID mice were anaesthetized using a mixture of isoflurane and oxygen. […] The mice were monitored for weight loss and signs of distress. […]

[3] = tested on: ex-vivo adult zebrafish hearts; assay: Cardiotoxicity, ex vivo adult zebrafish hearts; details: frequency spectral analysis of heart beating
Experimental: A xenotransplantation model for GBM in zebrafish was developed to test the capacity of the 17 hits to prevent tumor formation in vivo. Three thousand U3013MG GSCs labeled with cell tracker red were injected intracranially into the ventricle of 48-52 hpf larvae. Each of the 17 hits were administered to the egg water at the lowest effective in vitro cytotoxic concentration identified and tumor development assessed 10 days later. This assay allowed rapid evaluation of the compounds in an in vivo setup, features such as the acute/chronic toxicity effect of the compounds on zebrafish and the transplanted cells, transplanted cell proliferation and migration of cells into brain parenchyma, compounds penetrance into the zebrafish tissue were all parallely evaluated. […] Cardiovascular toxicity was assessed using a recently established model based on frequency spectral analysis of heart beating in ex-vivo adult zebrafish hearts (Kitambi et al., (2012) BMC Physiol. 12, 3).
A zebrafish model was used to assess the developmental and cardiac toxicity of advanced hits from the screen. […] The embryos were monitored every day and allowed to grow for 5 days before the phenotype was recorded. […] Adult hearts from male zebrafish were exposed to compounds and the effect on the heart beat was recorded and analysed using developed methods (Kitambi et al., (2012) BMC Physiol. 12, 3).

For `OC(c1cc(-c2ccc(Cl)cc2)nc2ccccc12)C1CCCCN1` (racemic) [Compound S10, (2-(4-chlorophenyl)quinolin-4-yl)(piperidin-2-yl)methanol], the “Cmax Brain” value ([1]; 2 mg/kg i.v.) was 514 ng/mL, the “tlast Brain” value ([1]; 2 mg/kg i.v.) was 144 h and the “tlast Plasma” value ([1]; 2 mg/kg i.v.) was 144 h. The “Cmax Brain” value ([1]; 20 mg/kg p.o.) was 1860 ng/mL, the “tlast Brain” value ([1]; 20 mg/kg p.o.) was 144 h and the “tlast Plasma” value ([1]; 20 mg/kg p.o.) was 144 h. It also gave a Kp ([1]; NMRI (single stereoisomers SR/RS), BALB/c (racemate), mouse, brain and plasma, 20 mg/kg, after oral dosing, read-out: relative brain/plasma exposure ratio (AUClast(brain)/AUClast(plasma))) of 0.6, an AUC(0-t) ([1]; NMRI (single stereoisomers SR/RS), BALB/c (racemate), mouse, brain, iv, 2 mg/kg i.v., read-out: AUClast Brain) of 20.4 µg·h/mL and a half-life ([1]; NMRI (single stereoisomers SR/RS), BALB/c (racemate), mouse, brain, iv, 2 mg/kg i.v., read-out: t1/2 Brain (converted)) of 63 h. For the same compound, the AUC(0-t) ([1]; NMRI (single stereoisomers SR/RS), BALB/c (racemate), mouse, brain, po, 20 mg/kg p.o., read-out: AUClast Brain) was 167 µg·h/mL, the Tmax ([1]; NMRI (single stereoisomers SR/RS), BALB/c (racemate), mouse, brain, po, 20 mg/kg p.o., read-out: tmax Brain) was 48 h and the Cmax ([1]; NMRI (single stereoisomers SR/RS), BALB/c (racemate), mouse, plasma, iv, 2 mg/kg i.v.) was 467 ng/mL. For the same compound, the AUC(0-t) ([1]; NMRI (single stereoisomers SR/RS), BALB/c (racemate), mouse, plasma, iv, 2 mg/kg i.v., read-out: AUClast Plasma) was 64.5 µg·h/mL, the half-life ([1]; NMRI (single stereoisomers SR/RS), BALB/c (racemate), mouse, plasma, iv, 2 mg/kg i.v., read-out: t1/2 Plasma (converted)) was 52 h and the Cmax ([1]; NMRI (single stereoisomers SR/RS), BALB/c (racemate), mouse, plasma, po, 20 mg/kg p.o.) was 3280 ng/mL. The AUC(0-t) ([1]; NMRI (single stereoisomers SR/RS), BALB/c (racemate), mouse, plasma, po, 20 mg/kg p.o., read-out: AUClast Plasma) was 292 µg·h/mL, the Tmax ([1]; NMRI (single stereoisomers SR/RS), BALB/c (racemate), mouse, plasma, po, 20 mg/kg p.o., read-out: tmax Plasma) was 24 h and the “Cmax exposures ratio (Cmax(brain)/Cmax(plasma))” value ([1]; after oral dosing) was 0.6. For the same compound, the “loss of brain tissue by necrosis” value [2] was “markedly and significantly reduced”, the “tumor infiltration and area of hGFAP and hNestin immunoreactivity” value [2] was “significantly reduced” and the “cardiac toxicity, heart beating” value [3] was “small or no effects”.
